Our source for the IC50 values is patent US20180148418A1, “AMIDO-SUBSTITUTED CYCLOHEXANE DERIVATIVES” (Bayer Pharma Aktiengesellschaft, priority 2015, published 2018).

Each structure is given as a SMILES string.

The test system of assay [1] is wildtype Wnt signaling cascade. The experiment in a line: HEK293 TOP assay (Super TopFlash luciferase reporter, Wnt-3a stimulated). The note with it: Homo sapiens, HEK293, 16 h, HEK293 TOP reporter cells, Wnt3a at EC50, 16 hours. It counts as cell-based. In outline:
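Compound series (50 μM down to 15 nM, 3.16-fold) diluted from DMSO 50-fold into CAFTY buffer, pH 7.4, 2 mM Ca^2+, 0.01% BSA, applied to Wnt-3a-stimulated HEK293 TopFlash and FOP reporter lines in parallel. Cells seeded 10000/well 24 h before; luciferase signal measured.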

In a further assay the target is T1, TNKS1 (Homo sapiens, UniProt O95271).
T1 construct: purchased BPS Bioscience, San Diego, USA 80579 (TNKS1 Histone Ribosylation Assay Kit)
T1 sequence (O95271 1-1327): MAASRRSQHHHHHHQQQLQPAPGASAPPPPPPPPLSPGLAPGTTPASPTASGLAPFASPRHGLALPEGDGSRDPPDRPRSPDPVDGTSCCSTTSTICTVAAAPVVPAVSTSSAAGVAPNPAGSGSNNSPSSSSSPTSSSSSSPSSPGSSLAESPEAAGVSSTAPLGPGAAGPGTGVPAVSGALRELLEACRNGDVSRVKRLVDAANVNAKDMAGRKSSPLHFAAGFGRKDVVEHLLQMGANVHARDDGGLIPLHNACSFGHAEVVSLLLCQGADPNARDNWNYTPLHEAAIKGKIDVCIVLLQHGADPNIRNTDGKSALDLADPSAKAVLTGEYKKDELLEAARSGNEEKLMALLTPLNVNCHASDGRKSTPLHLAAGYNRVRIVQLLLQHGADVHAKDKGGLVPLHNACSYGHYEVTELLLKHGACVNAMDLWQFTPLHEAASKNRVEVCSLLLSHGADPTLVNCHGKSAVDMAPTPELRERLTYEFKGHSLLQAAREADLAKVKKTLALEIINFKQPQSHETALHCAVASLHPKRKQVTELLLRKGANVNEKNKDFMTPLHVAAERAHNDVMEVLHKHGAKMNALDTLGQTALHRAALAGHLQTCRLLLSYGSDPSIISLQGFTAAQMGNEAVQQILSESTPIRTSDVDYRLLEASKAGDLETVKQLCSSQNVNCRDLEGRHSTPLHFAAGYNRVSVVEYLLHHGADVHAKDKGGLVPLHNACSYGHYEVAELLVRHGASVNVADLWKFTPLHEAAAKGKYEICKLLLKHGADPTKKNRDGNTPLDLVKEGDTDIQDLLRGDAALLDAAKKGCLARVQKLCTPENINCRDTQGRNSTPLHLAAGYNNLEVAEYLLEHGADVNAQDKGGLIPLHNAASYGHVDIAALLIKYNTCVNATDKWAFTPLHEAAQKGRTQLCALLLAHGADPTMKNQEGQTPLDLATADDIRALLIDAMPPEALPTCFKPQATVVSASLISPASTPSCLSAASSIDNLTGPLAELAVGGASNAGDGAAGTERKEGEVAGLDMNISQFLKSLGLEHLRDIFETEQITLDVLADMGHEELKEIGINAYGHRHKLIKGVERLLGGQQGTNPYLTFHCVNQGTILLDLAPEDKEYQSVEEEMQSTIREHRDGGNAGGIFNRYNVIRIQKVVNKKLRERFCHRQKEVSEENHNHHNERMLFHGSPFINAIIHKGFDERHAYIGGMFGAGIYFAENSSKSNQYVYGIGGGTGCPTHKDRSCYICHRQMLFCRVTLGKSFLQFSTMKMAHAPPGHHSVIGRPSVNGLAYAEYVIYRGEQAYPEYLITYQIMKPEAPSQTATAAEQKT
Nature of the assay: TNKS1 Assay B (auto-parsylation, [3H]-NAD+ SPA). It counts as biochemical. The following applies: 6 nM TNKS1, auto-parsylation, over night at room temperature.

For orientation: IC50 means the concentration needed to halve the response being measured. Consider `O=C(NC1CCC2(CC1)CCN(c1cc(F)c(F)cc1Cl)C2=O)c1cnn2cccnc12` (single isomer, unassigned; isomer 1) [Example 168, N-[2-(2-chloro-4,5-difluorophenyl)-1-oxo-2-azaspiro[4.5]dec-8-yl]pyrazolo[1,5-a]pyrimidine-3-carboxamide (isomer 1)], for which the results for the half-inhibitory concentration (IC50) (in assay [1]; at TNKS1) were 0.23 nM and 7.3 nM, respectively.
On the same counts, the results for `CNC(=O)c1nc[nH]c1C(=O)N[C@H]1CC[C@H](C(=O)Nc2cccnc2Cl)CC1` [Example 10, N^5-{trans-4-[(2-chloropyridin-3-yl)carbamoyl]cyclohexyl}-N^4-methyl-1H-imidazole-4,5-dicarboxamide] are 90 nM and 250 nM.
On to `CNC(=O)c1nc[nH]c1C(=O)N[C@H]1CC[C@H](C(=O)Nc2ccncc2Cl)CC1` [Example 11, N^5-{trans-4-[(3-chloropyridin-4-yl)carbamoyl]cyclohexyl}-N^4-methyl-1H-imidazole-4,5-dicarboxamide], for which the IC50 was found to be 140 nM in assay [1] and 260 nM on TNKS1.
On the same counts, the results for `CC1CCN(CCNC(=O)c2nc[nH]c2C(=O)N[C@H]2CC[C@H](C(=O)Nc3ccc(F)cc3Cl)CC2)CC1` [Example 12, N^5-{trans-4-[(2-chloro-4-fluorophenyl)carbamoyl]cyclohexyl}-N^4-[2-(4-methylpiperidin-1-yl)ethyl]-1H-imidazole-4,5-dicarboxamide] are 72 nM and 3.7 nM.
For `O=C(NCCN1CCOCC1)c1nc[nH]c1C(=O)N[C@H]1CC[C@H](C(=O)Nc2ccc(F)cc2Cl)CC1` [Example 13, N^5-{trans-4-[(2-chloro-4-fluorophenyl)carbamoyl]cyclohexyl}-N^4-[2-(morpholin-4-yl)ethyl]-1H-imidazole-4,5-dicarboxamide], the results for the IC50 (in assay [1]; against TNKS1) were 95 nM and 10 nM, respectively.
On to `O=C(N[C@H]1CC[C@H](C(=O)Nc2ccc(F)cc2Cl)CC1)c1[nH]cnc1C(=O)N1CC2(COC2)C1` [Example 14, N-{trans-4-[(2-chloro-4-fluorophenyl)carbamoyl]cyclohexyl}-4-(2-oxa-6-azaspiro[3.3]hept-6-ylcarbonyl)-1H-imidazole-5-carboxamide], for which the figures for the IC50 (in assay [1]; against TNKS1) were 120 nM and 63 nM, respectively.
Turning to `CCNC(=O)c1nc[nH]c1C(=O)N[C@H]1CC[C@H](C(=O)Nc2ccc(F)cc2Cl)CC1` [Example 15, N^5-{trans-4-[(2-chloro-4-fluorophenyl)carbamoyl]cyclohexyl}-N^4-ethyl-1H-imidazole-4,5-dicarboxamide], the half-maximal inhibitory concentration (IC50) in assay [1] turned out to be 71 nM; against TNKS1, 52 nM.
Turning to `CN(C)C(=O)c1nc[nH]c1C(=O)N[C@H]1CC[C@H](C(=O)Nc2ccc(F)cc2Cl)CC1` [Example 16, N^5-{trans-4-[(2-chloro-4-fluorophenyl)carbamoyl]cyclohexyl}-N^4,N^4-dimethyl-1H-imidazole-4,5-dicarboxamide], the 50% inhibitory concentration (IC50) was determined as 1400 nM in assay [1] and 1100 nM against TNKS1.
For `O=C(NC1CC1)c1nc[nH]c1C(=O)N[C@H]1CC[C@H](C(=O)Nc2ccc(F)cc2Cl)CC1` [Example 17, N^5-{trans-4-[(2-chloro-4-fluorophenyl)carbamoyl]cyclohexyl}-N^4-cyclopropyl-1H-imidazole-4,5-dicarboxamide], the half-inhibitory concentration (IC50) in assay [1] is 49 nM; against TNKS1, 84 nM.
For the molecule `O=C(NCCO)c1nc[nH]c1C(=O)N[C@H]1CC[C@H](C(=O)Nc2ccc(F)cc2Cl)CC1` [Example 18, N^5-{trans-4-[(2-chloro-4-fluorophenyl)carbamoyl]cyclohexyl}-N^4-(2-hydroxyethyl)-1H-imidazole-4,5-dicarboxamide], the IC50 in assay [1] worked out at 150 nM; on TNKS1, 94 nM.
For `COCCNC(=O)c1nc[nH]c1C(=O)N[C@H]1CC[C@H](C(=O)Nc2ccc(F)cc2Cl)CC1` [Example 19, N^5-{trans-4-[(2-chloro-4-fluorophenyl)carbamoyl]cyclohexyl}-N^4-(2-methoxyethyl)-1H-imidazole-4,5-dicarboxamide], in that order: 89 nM and 120 nM.
For `CC(C)NC(=O)c1nc[nH]c1C(=O)N[C@H]1CC[C@H](C(=O)Nc2ccc(F)cc2Cl)CC1` [Example 20, N^5-{trans-4-[(2-chloro-4-fluorophenyl)carbamoyl]cyclohexyl}-N^4-isopropyl-1H-imidazole-4,5-dicarboxamide], the IC50 in assay [1] was 220 nM; against TNKS1, 90 nM.
On to `O=C(NCC(F)(F)F)c1nc[nH]c1C(=O)N[C@H]1CC[C@H](C(=O)Nc2ccc(F)cc2Cl)CC1` [Example 21, N^5-{trans-4-[(2-chloro-4-fluorophenyl)carbamoyl]cyclohexyl}-N^4-(2,2,2-trifluoroethyl)-1H-imidazole-4,5-dicarboxamide], for which the IC50 in assay [1] stood at 79 nM; at TNKS1 it was 37 nM.
Regarding `O=C(N[C@H]1CC[C@@]2(CCN(c3ccc(F)cc3Cl)C2=O)CC1)c1[nH]cnc1C(=O)N1CCN(CC(F)(F)F)CC1` [Example 167, N-[(trans)-2-(2-chloro-4-fluorophenyl)-1-oxo-2-azaspiro[4.5]dec-8-yl]-4-{[4-(2,2,2-trifluoroethyl)piperazin-1-yl]carbonyl}-1H-imidazole-5-carboxamide], the half-inhibitory concentration (IC50) in assay [1] amounted to 130 nM; at TNKS1 it was 660 nM.
Turning to `Cc1cc(C)n2ncc(C(=O)N[C@H]3CC[C@H](C(=O)Nc4cnccc4Cl)CC3)c2n1` [Example 169, N-{trans-4-[(4-chloropyridin-3-yl)carbamoyl]cyclohexyl}-5,7-dimethylpyrazolo[1,5-a]pyrimidine-3-carboxamide], the IC50 in assay [1] was determined as 33 nM; against TNKS1 it was 35 nM.
With `CNC(=O)c1nc[nH]c1C(=O)N[C@H]1CC[C@H](C(=O)Nc2cc(C(C)(C)O)ccc2Cl)CC1` [Example 170, N^5-(trans-4-{[2-chloro-5-(2-hydroxypropan-2-yl)phenyl]carbamoyl}cyclohexyl)-N^4-methyl-1H-imidazole-4,5-dicarboxamide], the IC50 in assay [1] was determined as 2000 nM; against TNKS1 it was 2400 nM.
Regarding `CNC(=O)c1nc[nH]c1C(=O)N[C@H]1CC[C@H](C(=O)N(C)c2ccccc2)CC1` [Example 171, N^4-methyl-N^5-{trans-4-[methyl(phenyl)carbamoyl]cyclohexyl}-1H-imidazole-4,5-dicarboxamide], the IC50 in assay [1] came out at 450 nM; on TNKS1, 400 nM.
Turning to `CNC(=O)c1nc[nH]c1C(=O)N[C@H]1CC[C@H](C(=O)N(C)c2ccc(F)cc2)CC1` [Example 172, N^5-{trans-4-[(4-fluorophenyl)(methyl)carbamoyl]cyclohexyl}-N^4-methyl-1H-imidazole-4,5-dicarboxamide], the IC50 in assay [1] is 410 nM; on TNKS1, 980 nM.
Consider `CNC(=O)c1nc[nH]c1C(=O)N[C@H]1CC[C@H](C(=O)N(C)c2ccc(F)cc2Cl)CC1` [Example 173, N^5-{trans-4-[(2-chloro-4-fluorophenyl)(methyl)carbamoyl]cyclohexyl}-N^4-methyl-1H-imidazole-4,5-dicarboxamide], for which the IC50 in assay [1] stood at 190 nM; against TNKS1 it was 200 nM.
On to `Cc1cc(N(C)C(=O)[C@H]2CC[C@H](NC(=O)c3cnn4cccnc34)CC2)c(Cl)cc1F` [Example 176, N-{trans-4-[(2-chloro-4-fluoro-5-methylphenyl)(methyl)carbamoyl]cyclohexyl}pyrazolo[1,5-a]pyrimidine-3-carboxamide], for which the values for the 50% inhibitory concentration (IC50) (in assay [1]; against TNKS1) were 350 nM and 160 nM, respectively.
As for `O=C(N[C@H]1CC[C@H](C(=O)N(CC2CC2)c2ccc(F)cc2Cl)CC1)c1cnn2cccnc12` [Example 177, N-{trans-4-[(2-chloro-4-fluorophenyl)(cyclopropylmethyl)carbamoyl]cyclohexyl}pyrazolo[1,5-a]pyrimidine-3-carboxamide], the IC50 is 71 nM in assay [1] and 13 nM against TNKS1.
